Values joined by “and” are separate entries in the source; they are usually repeats but may differ in a detail not shown here. Identical values can stand only once. Ends that are not written are not given here.
Legend:
TEAD4 = molecular target: T1, TEAD4 (Homo sapiens, UniProt Q15561); assay: In vitro LLPS (droplet formation) assay; format: biochemical
T1 construct: His; made in house; host or cells: Escherichia coli BL21(DE3)
Procedure: LLPS was induced at room temperature by diluting proteins and NaCl to specified concentrations (20, 150, 500 mM). After subsequent mixing, 10 μl of the reaction solution were gently transferred onto a 20 mm glass-bottomed dish (NEST, 801001) for differential interference contrast (DIC) imaging performed using a Zeiss LSM 880 confocal microscope equipped with a 20× water immersion objective lens. Unless otherwise indicated (e.g., in the figure legend), the final concentration of purified protein used for in vitro LLPS assays was 40 μM.

HGC-27 cells = assay: Live-cell imaging of FAM-GLUP cellular entry; format: cell-based, human; conditions: FAM-GLUP 10 μg/ml (5 μM), HGC-27 live cells
Procedure: (§1) To confirm cellular entry of GLUP, we performed immunostaining of live cells treated with a fluorescein-labeled version of the peptide (FAM-GLUP). […] We then examined the potential effect of GLUP on TEAD4-mediated perturbation of DNA conformation.
(A) Representative live-cell images of HGC-27 cells treated with FAM (a fluorescent moiety)-labeled GLUP for indicated periods of time. FAM-GLUP: 10 μg/ml (5 μM). Scale bar, 10 μm. (B) Representative DAPI staining images of DNA showing its organization and appearance in the presence or absence of TEAD4 and GLUP as indicated. GLUP: 1 μg/ml (0.5 μM). Scale bar, 100 nm. (C) Representative N-SIM images of chromatin in GLUP-treated cells stained with DAPI. GLUP, 1 μg/ml (0.5 μM). Scale bar, 100 nm. (D) Representative images showing co-localization of GFP-TEAD4 with H3K27me3 in HEK293FT cells treated with GLUP together with 1,6-Hex. Scale bar, 1 μm. (E) Average enrichment profiles of H3K27me3 in GLUP-treated WT or TEAD4KO HGC-27 cells, stratified by gene length (three biological replicates, n = 3). Normalization of coverage using RPKM was performed over the genes and flanking region 1 kb in length. GLUP: 10 μg/ml (5 μM). […] The interval scale was 10 in both cases. See also Appendix Fig. S6. Source data are available online for this figure.

[1] = Toxicity analysis (blood testing, blood biochemistry, pathology); format: in vivo, mouse; conditions: BALB/c mice, GLUP 1 or 10 mg/kg i.p. every 2 days, 14 days
Procedure: Healthy BALB/c mice (~8 weeks, n = 5) were injected intraperitoneally with GLUP (1, 10 mg/kg, respectively, every 2 days), and mice of the control group were injected with saline (10 ml/kg, n = 5). The mice were continuously observed for 14 days after the administration and then sacrificed for routine blood testing (of white blood cells, red blood cells, platelets, lymphocytes, monocytes, and neutrophils), examination of the blood biochemistry (hemoglobin, albumin, glucose, creatinine, urea, AST, and ALT) and pathology examination.

MNU-induced GC tumors = assay: MNU-induced gastric cancer mouse model; format: in vivo; parameters: Tumor area, GLUP+ / Tumor area, GLUP++: unit not given here
Procedure: For the model involving N-nitroso-N-methylurea (MNU)-induced GC, 8-week-old C57BL/6 mice received 3 cycles of MNU (TRC, Toronto, Canada) in drinking water. For each cycle, drinking water containing 240 μg/ml MNU was served to the mice for 1 week, and then normal drinking water the next week. After 19 weeks of MNU administration, mice were randomized to receive GLUP via intraperitoneal injection (i.p.) biweekly for the following 5 weeks (n = 8/group). After 24 weeks, mice were sacrificed for subsequent analysis. The tumor volume per stomach was measured.

[2] = tested on: WT or TEAD4KO HGC-27 cells; assay: Cut&Tag; format: cell-based, human; conditions: GLUP 10 μg/ml (5 μM)
TEAD4-DNA = molecular target: T2, TEAD4-DNA (Homo sapiens, UniProt Q15561); assay: DAPI imaging of M-CAT DNA organization with purified proteins; format: biochemical; conditions: GLUP 1 μg/ml (0.5 μM)
T2 construct: His; made in house; host or cells: Escherichia coli BL21(DE3)
T2 sequence (Q15561 whole entry): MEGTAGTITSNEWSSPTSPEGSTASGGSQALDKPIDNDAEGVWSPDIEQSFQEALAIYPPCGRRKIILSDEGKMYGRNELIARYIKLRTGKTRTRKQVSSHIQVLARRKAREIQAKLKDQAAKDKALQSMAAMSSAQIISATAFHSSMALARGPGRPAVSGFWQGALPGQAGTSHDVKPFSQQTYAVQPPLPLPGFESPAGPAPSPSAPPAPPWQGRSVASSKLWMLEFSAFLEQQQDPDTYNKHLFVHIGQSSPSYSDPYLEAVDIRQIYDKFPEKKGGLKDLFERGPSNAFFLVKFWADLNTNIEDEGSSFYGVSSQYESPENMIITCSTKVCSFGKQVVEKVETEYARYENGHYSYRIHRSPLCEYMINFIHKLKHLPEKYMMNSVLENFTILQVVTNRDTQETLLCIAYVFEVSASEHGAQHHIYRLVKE
Procedure: LLPS is considered as principle for chromosome compartmentalization and condensation (Hildebrand and Dekker, [2020]; Shin et al, [2018]). […] To test this hypothesis, we used confocal microscopy to observe the morphology of M-CAT DNA (Fig. 4D). […] When VGLL4 protein was added into the mixture, the DNA chains appeared more aggregated and tangled (Fig. 4D).
as §1

chromatin = assay: N-SIM imaging of DAPI-labeled chromatin in cells; format: cell-based; conditions: GLUP 1 μg/ml (0.5 μM)
From the text: Next, we used structure illumination microscopy (N-SIM) to examine deformation of DAPI-labeled chromatin in cells overexpressing VGLL4. […] To further address this issue, we performed colloidal gold staining using TEAD4 antibody to observe the status of chromatin around TEAD4.
as §1

T1 sequence (Q15561 whole entry): as above

RRVCVHFHFSLSLR-NH2 (C-terminus assumed) [glup]
Turbidity of TEAD4 solution after GLUP (TEAD4; PEG solution, vials before and after GLUP): high turbidity in a PEG solution
TEAD4 droplet formation (TEAD4; mCherry-TEAD4 with FAM-GLUP 20, 40, 80 µM): strongly promoted TEAD4 droplet formation
Cellular localisation (HGC-27 cells; 30 min): in the cytoplasm but outside of the nucleus
Cellular localisation (HGC-27 cells; 80 min): throughout in the cell including the nucleus
Blood findings upon GLUP treatment [1]: a range of blood biochemical abnormalities e.g., in numbers of platelets and neutrophils
Average tumor area vs control (MNU-induced GC tumors; MNU-induced GC mice, 5-week GLUP treatment): much smaller than that in control mice
Gastric mucosa histology (MNU-induced GC tumors; MNU-induced GC mice, high dose GLUP 5 mg/kg): almost normal gastric mucosa
Tumor area, GLUP+ (MNU-induced GC tumors; MNU-induced GC, C57BL/6 mice, 1 mg/kg GLUP biweekly for 5 weeks, individual mice (source data Fig 7B), 1 mg/kg): 28.125 and 40.5 and 20.5 and 4.5 and 6.5 and 16.2
Tumor area, GLUP++ (MNU-induced GC tumors; MNU-induced GC, C57BL/6 mice, 5 mg/kg GLUP biweekly for 5 weeks, individual mice (source data Fig 7B), 5 mg/kg): 4.5 and 2.5315 and 0.5 and 0
H3K27me3 signals at 3 kb regions flanking TSS ([2]; TEAD4-depleted HGC-27 cells): no such effect was detected
H3K27me3 signals at 3 kb regions flanking TSS ([2]; WT HGC-27 cells): dramatically strengthened the signals of H3K27me3
Effect on TEAD4-mediated DNA conformation (TEAD4-DNA): strongly promoted TEAD4-mediated formation of DNA aggregations and tangles
Effect on chromatin distribution (chromatin): substantially disturbed chromatin distribution and organization

Source: publication PMC11574045, “A cofactor-induced repressive type of transcription factor condensation can be induced by synthetic peptides to suppress tumorigenesis” (The EMBO Journal, 2024)
